The values that follow come from ChEMBL document CHEMBL3853264 (Medchemcomm, 2016).

Data set [1] is described as follows: Plasma clearance in dog at 0.1 mg/kg, iv and 3 mg/kg, po. In kind it is ADME, organism-based, Canis lupus familiaris.
A short description of data set [2]: Half life in dog at 0.1 mg/kg, iv and 3 mg/kg, po. It is filed as ADME, organism-based, Canis lupus familiaris. The following applies: in vivo.
Data set [3] in a line: Unbound clearance in rat at 1 mg/kg, iv and 3 mg/kg, po. In kind it is ADME, organism-based. The conditions noted are these: in vivo.
A short description of data set [4]: Volume of distribution at steady state in rat at 1 mg/kg, iv and 3 mg/kg, po. In kind it is ADME, organism-based. The following applies: in vivo, read-out: Vdss.
Data set [5] is described as follows: Oral bioavailability in rat at 3 mg/kg. It is filed as ADME, organism-based. The following applies: in vivo.
The nature of data set [6]: Unbound clearance in dog at 0.1 mg/kg, iv and 3 mg/kg, po. In kind it is ADME, organism-based, Canis lupus familiaris. The following applies: in vivo.
The nature of data set [7]: Volume of distribution at steady state in dog at 0.1 mg/kg, iv and 3 mg/kg, po. In kind it is ADME, organism-based, Canis lupus familiaris. The conditions noted are these: in vivo, read-out: Vdss.
The nature of data set [8]: Oral bioavailability in dog at 3 mg/kg. It is filed as ADME, organism-based, Canis lupus familiaris. The conditions noted are these: in vivo.
The nature of data set [9]: Unbound average plasma concentration in human at >450 mg, bid. In kind it is ADME.
For another data set, the species on record is Homo sapiens. Description: Reduction in serum ureate in human at >450 mg, bid. It is filed as functional. Set-up: scale not given: the % may be the effect or the level left.
Data set [10] in a line: Lipophilicity, log D of the compound. The following applies: octanol/water. It is filed as physicochemical.

Molecules are shown by their SMILES.

In the case of `Nc1[nH]ncc1-c1cc(Cl)ccc1Oc1cc(F)c(S(=O)(=O)Nc2cscn2)cc1Cl` [PF-05089771], the clearance in data set [1] was found to be 4.8 mL/min/kg. This molecule also gave a half-life in [2] of 1.4 h. Besides, the CL free in [3] came out at 447 mL/min/kg; in data set [6], 641 mL/min/kg. Besides, the Vd was determined as 1.3 L/kg in data set [4] and 0.31 L/kg in data set [7]. The bioavailability is 27% in data set [5] and 35% in data set [8]. The “Cp(f)” value in data set [9] is 60 nM. In the data set listed under Homo sapiens, this molecule yielded an Activity of 50%. The logD in [10] came out at 2.6.
